According to patent US20260062422A1 (Halda Therapeutics OpCo, Inc., priority 2022, published 2026):

Key:
[1] = tested on: T-Rex 293 cell line SC3 cells having increased expression of androgen receptor protein due to exposure to doxycycline; assay: Cellular growth inhibition, T-Rex 293 SC3 cells with doxycycline (androgen receptor induced), CellTiter-Glo; assay type: cell-based; details: T-Rex 293 SC3 cells with 10 ng/mL doxycycline (increased androgen receptor expression)
Summary of the method: (§1)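 GI50 came from a four-parameter fit of CellTiter-Glo 2.0 luminescence after 72 h compound exposure (0.5% DMSO, 37 °C), dosing 24 h post-seeding. SC3 clone cells (2500/well), transfected with wild-type androgen receptor, grew in charcoal-stripped serum medium lacking phenol red, induced with 10 ng/mL doxycycline or left uninduced.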

[2] = tested on: T-Rex 293 cell line SC3 cells lacking increased expression of androgen receptor protein; assay: Cellular growth inhibition, T-Rex 293 SC3 cells without doxycycline, CellTiter-Glo; assay type: cell-based; details: T-Rex 293 SC3 cells not exposed to doxycycline, CellTiter-Glo 2.0
Summary of the method: as §1

T47D cells = assay: Cellular growth inhibition assay for T47D cells, CellTiter-Glo; assay type: cell-based, human; details: 72 hours treatment, CellTiter-Glo 2.0 cell viability
Summary of the method: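 Growth inhibition as GI50, fitted with four parameters to CellTiter-Glo luminescence after 72 h of compound exposure (0.5% DMSO). Cells were T47D, grown in insulin-supplemented (0.2 units/mL) DMEM with 10% FBS and treated one day post-seeding.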

VCaP cells = assay: Cellular growth inhibition assay for VCaP cells, CellTiter-Glo; assay type: cell-based, human; details: 72 hours treatment, CellTiter-Glo 2.0
Summary of the method: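 GI50 values come from four-parameter curve fits of luminescence data normalized to a zero baseline. Compound, in medium with 0.5% DMSO, was added one day after plating and left for 72 h before CellTiter-Glo 2.0 addition.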

Compound	GI50 ([1]; 72 h) [µM]	GI50 ([2]; 72 h) [µM]	GI50 (T47D cells; Homo sapiens, T47D, 72 h) [µM]	GI50 (VCaP cells; Homo sapiens, VCaP, 72 h) [µM]	GI50 ([1]; 72 hours) [µM]	GI50 ([2]; 72 hours) [µM]	GI50 (T47D cells) [µM]	GI50 (VCaP cells) [µM]
Cc1sc2c(c1C)C(c1ccc(OC[C@H]3CCCN(c4ncc(C(=O)N[C@H]5C(C)(C)[C@H](Oc6ccc(C#N)c(Cl)c6)C5(C)C)cn4)C3)cc1)=N[C@@H](Cc1ncco1)c1nnc(C)n1-2 [Compound I-255]	< 0.5	< 0.5	< 0.5	< 0.5				
Cc1sc2c(c1C)C(c1ccc(N(C)CC(=O)NCc3ncc(C(=O)N[C@H]4C(C)(C)[C@H](Oc5ccc(C#N)c(Cl)c5)C4(C)C)cn3)cc1)=N[C@H](Cc1ncco1)c1nnc(C)n1-2 [Compound I-374]	> 3	> 3	0.5 to 1.5	< 0.5				
Cc1sc2c(c1C)C(c1ccc(CN3CC4(CCCN(c5ncc(C(=O)N[C@H]6C(C)(C)[C@H](Oc7ccc(C#N)c(Cl)c7)C6(C)C)cn5)C4)C3)cc1)=N[C@H](Cc1ncco1)c1nnc(C)n1-2 [Compound I-149]	< 0.5	> 3	> 3	0.5 to 1.5				
Cc1sc2c(c1C)C(c1ccc(C(=O)N3CCC(C(=O)c4ncc(C(=O)N[C@H]5C(C)(C)[C@H](Oc6ccc(C#N)c(Cl)c6)C5(C)C)cn4)CC3)cc1)=N[C@@H](Cc1ncco1)c1nnc(C)n1-2 [Compound I-381]		> 3	> 3	> 3	> 3			
Cc1sc2c(c1C)C(c1ccc(CCNC(=O)NCc3ncc(C(=O)N[C@H]4C(C)(C)[C@H](Oc5ccc(C#N)c(Cl)c5)C4(C)C)cn3)cc1)=N[C@H](Cc1ncco1)c1nnc(C)n1-2 [Compound I-330]	< 0.5	> 3	1.5 to 3	0.5 to 1.5				
Cc1sc2c(c1C)C(c1ccc(O[C@H]3CC[C@]4(CCN(c5ncc(C(=O)N[C@H]6C(C)(C)[C@H](Oc7ccc(C#N)c(Cl)c7)C6(C)C)cn5)C4)C3)cc1)=N[C@@H](Cc1ncco1)c1nnc(C)n1-2 [Compound I-175]	< 0.5	< 0.5	0.5 to 1.5	< 0.5				
Cc1sc2c(c1C)C(c1ccc(C3CN(C(=O)C4CCN(c5ncc(C(=O)N[C@H]6C(C)(C)[C@H](Oc7ccc(C#N)c(Cl)c7)C6(C)C)cn5)CC4)C3)cc1)=N[C@@H](C)c1nnc(C)n1-2 [Compound I-590]	< 0.5	< 0.5	< 0.5	< 0.5				
Cc1sc2c(c1C)C(c1ccc(C3CC(C4CCN(c5cnc(C(=O)N[C@H]6C(C)(C)[C@H](Oc7ccc(C#N)c(Cl)c7)C6(C)C)cn5)CC4)C3)cc1)=NC(C)c1nnc(C)n1-2 (some centres unmarked) [Compound I-472]					> 3	> 3	< 0.5	> 3
CCNC(=O)C[C@@H]1N=C(c2ccc(N3CCC(CN4CC(N(C)c5ncc(C(=O)N[C@H]6C(C)(C)[C@H](Oc7ccc(C#N)c(Cl)c7)C6(C)C)cn5)C4)CC3)cc2)c2c(sc(C)c2C)-n2c(C)nnc21 [Compound I-128]	> 3	> 3	1.5 to 3	1.5 to 3				
Cc1sc2c(c1C)C(c1ccc(-c3ncc(C4CCN(c5ncc(C(=O)N[C@H]6C(C)(C)[C@H](Oc7ccc(C#N)c(Cl)c7)C6(C)C)cn5)CC4)s3)cc1)=N[C@@H](Cc1ncco1)c1nnc(C)n1-2 [Compound I-452]	< 0.5	< 0.5	< 0.5	< 0.5				
Cc1sc2c(c1C)C(c1ccc(N3C4CC(=O)CC3CN(c3ncc(C(=O)N[C@H]5C(C)(C)[C@H](Oc6ccc(C#N)c(Cl)c6)C5(C)C)cn3)C4)cc1)=NC(Cc1ncco1)c1nnc(C)n1-2 (some centres unmarked) [Compound I-654]			< 0.5	< 0.5	< 0.5	< 0.5		
Cc1sc2c(c1C)C(c1ccc(CN3CC(=O)N4C[C@@H](c5ncc(C(=O)N[C@H]6C(C)(C)[C@H](Oc7ccc(C#N)c(Cl)c7)C6(C)C)cn5)C[C@H]4C3=O)cc1)=N[C@@H](Cc1ncco1)c1nnc(C)n1-2 [Compound I-358]	< 0.5	> 3	0.5 to 1.5	< 0.5				
Cc1sc2c(c1C)C(c1ccc(CC[C@H]3C[C@]4(CCCN(c5ncc(C(=O)N[C@H]6C(C)(C)[C@H](Oc7ccc(C#N)c(Cl)c7)C6(C)C)cn5)C4)C3)cc1)=N[C@@H](C)c1nnc(C)n1-2 [Compound I-369]	< 0.5	> 3	> 3	< 0.5				
Cc1sc2c(c1C)C(c1ccc(N3CC4(C3)CC3(CCN(c5ncc(C(=O)N[C@H]6C(C)(C)[C@H](Oc7ccc(C#N)c(Cl)c7)C6(C)C)cn5)CC3)C4)cc1)=N[C@@H](Cc1ncco1)c1nnc(C)n1-2 [Compound I-388]	< 0.5	> 3	< 0.5	< 0.5				
Cc1sc2c(c1C)C(c1ccc(C(C)(C)CN3CC4(CCCN(c5ncc(C(=O)NC6C(C)(C)C(Oc7ccc(C#N)c(Cl)c7)C6(C)C)cn5)C4)C3)cc1)=N[C@@H](Cc1ncco1)c1nnc(C)n1-2 (some centres unmarked) [Compound I-479]	< 0.5	0.5 to 1.5	0.5 to 1.5	< 0.5				
Cc1sc2c(c1C)C(c1ccc(NCC3(F)CCN(c4ncc(C(=O)N[C@H]5C(C)(C)[C@H](Oc6ccc(C#N)c(Cl)c6)C5(C)C)cn4)CC3)cc1)=NC(Cc1ncco1)c1nnc(C)n1-2 (some centres unmarked) [Compound I-634]	< 0.5	> 3	< 0.5	0.5 to 1.5				
Cc1sc2c(c1C)C(c1ccc(CN(C)C(=O)[C@@H]3CC[C@@H](c4ncc(C(=O)N[C@H]5C(C)(C)[C@H](Oc6ccc(C#N)c(Cl)c6)C5(C)C)cn4)C3)cc1)=N[C@@H](Cc1ncco1)c1nnc(C)n1-2 [Compound I-372]	< 0.5	> 3	0.5 to 1.5	< 0.5				
Cc1sc2c(c1C)C(c1ccc(CCCCC3CCN(c4ncc(C(=O)N[C@H]5C(C)(C)[C@H](Oc6ccc(C#N)c(Cl)c6)C5(C)C)cn4)CC3)cc1)=NC(Cc1ncco1)c1nnc(C)n1-2 (some centres unmarked) [Compound I-135]	< 0.5	> 3	< 0.5	< 0.5				
Cc1sc2c(c1C)C(c1ccc([C@H]3C[C@@H]([C@@H]4CCCN(c5ncc(C(=O)N[C@H]6C(C)(C)[C@H](Oc7ccc(C#N)c(Cl)c7)C6(C)C)cn5)C4)C3)cc1)=N[C@@H](Cc1ncco1)c1nnc(C)n1-2 [Compound I-419]	> 3	> 3	> 3	> 3				
Cc1sc2c(c1C)C(c1ccc(N3CC(CC4CCN(c5ncc(C(=O)N(C)[C@H]6C(C)(C)[C@H](Oc7ccc(C#N)c(Cl)c7)C6(C)C)cn5)CC4)C3)cc1)=N[C@@H](C)c1nnc(C)n1-2 [Compound I-618]	< 0.5	> 3	< 0.5	1.5 to 3				
Cc1sc2c(c1C)C(c1ccc(C(=O)N3CC[C@@]4(CCCN(c5ncc(C(=O)N[C@H]6C(C)(C)[C@H](Oc7ccc(C#N)c(Cl)c7)C6(C)C)cn5)C4)C3)cc1)=N[C@@H](Cc1ncco1)c1nnc(C)n1-2 [Compound I-256]	> 3	> 3	> 3	> 3				
Cc1sc2c(c1C)C(c1ccc(-n3nccc3C3CCN(c4ncc(C(=O)N[C@H]5C(C)(C)[C@H](Oc6ccc(C#N)c(Cl)c6)C5(C)C)cn4)CC3)cc1)=N[C@@H](Cc1ncco1)c1nnc(C)n1-2 [Compound I-455]	< 0.5	> 3	> 3	< 0.5				
Cc1sc2c(c1C)C(c1ccc(CN(C)C(=O)CN(C)c3ncc(C(=O)N[C@H]4C(C)(C)[C@H](Oc5ccc(C#N)c(Cl)c5)C4(C)C)cn3)cc1)=N[C@@H](Cc1ncco1)c1nnc(C)n1-2 [Compound I-335]	< 0.5	> 3	0.5 to 1.5	0.5 to 1.5				
